This is an account of results in article PMC8048960 (Chemmedchem, 2020).

In one data set the test system is kinome. To be noted: kinases hit out of panel of 187; cited from earlier work.
Data set [1] has as its target LRRK2. To be noted: read-out: Ki in the biochemical assay; cited from earlier work.
The conditions of data set [2]: cited from earlier work.
The target of data set [3] is GFP‐tagged LRRK2 in transfected HEK293 cells (Homo sapiens, UniProt Q5S007). Nature of the data set: Ubiquitin assay. To be noted: 24 h; for LRRK2 ubiquitination (ubiquitin signal): 10 µM, with or without 5 µM MG132, compared to DMSO. The class given is cell-based.
Data set [4] relates to LRRK2. As to conditions: read-out: IC50 in the cellular assay; cited from earlier work.
Data set [5] deals with purified full‐length Strep flag LRRK2 (Homo sapiens, UniProt Q5S007). Description: In vitro radioactive kinase assay. The class given is biochemical.

SMILES strings stand for the structures. Peptide text beside a SMILES is read from it. * marks the point of attachment. Cbz = O=C(OCc1ccccc1)*

GFP‐tagged LRRK2 in transfected HEK293 cells, sequence (Q5S007 whole entry): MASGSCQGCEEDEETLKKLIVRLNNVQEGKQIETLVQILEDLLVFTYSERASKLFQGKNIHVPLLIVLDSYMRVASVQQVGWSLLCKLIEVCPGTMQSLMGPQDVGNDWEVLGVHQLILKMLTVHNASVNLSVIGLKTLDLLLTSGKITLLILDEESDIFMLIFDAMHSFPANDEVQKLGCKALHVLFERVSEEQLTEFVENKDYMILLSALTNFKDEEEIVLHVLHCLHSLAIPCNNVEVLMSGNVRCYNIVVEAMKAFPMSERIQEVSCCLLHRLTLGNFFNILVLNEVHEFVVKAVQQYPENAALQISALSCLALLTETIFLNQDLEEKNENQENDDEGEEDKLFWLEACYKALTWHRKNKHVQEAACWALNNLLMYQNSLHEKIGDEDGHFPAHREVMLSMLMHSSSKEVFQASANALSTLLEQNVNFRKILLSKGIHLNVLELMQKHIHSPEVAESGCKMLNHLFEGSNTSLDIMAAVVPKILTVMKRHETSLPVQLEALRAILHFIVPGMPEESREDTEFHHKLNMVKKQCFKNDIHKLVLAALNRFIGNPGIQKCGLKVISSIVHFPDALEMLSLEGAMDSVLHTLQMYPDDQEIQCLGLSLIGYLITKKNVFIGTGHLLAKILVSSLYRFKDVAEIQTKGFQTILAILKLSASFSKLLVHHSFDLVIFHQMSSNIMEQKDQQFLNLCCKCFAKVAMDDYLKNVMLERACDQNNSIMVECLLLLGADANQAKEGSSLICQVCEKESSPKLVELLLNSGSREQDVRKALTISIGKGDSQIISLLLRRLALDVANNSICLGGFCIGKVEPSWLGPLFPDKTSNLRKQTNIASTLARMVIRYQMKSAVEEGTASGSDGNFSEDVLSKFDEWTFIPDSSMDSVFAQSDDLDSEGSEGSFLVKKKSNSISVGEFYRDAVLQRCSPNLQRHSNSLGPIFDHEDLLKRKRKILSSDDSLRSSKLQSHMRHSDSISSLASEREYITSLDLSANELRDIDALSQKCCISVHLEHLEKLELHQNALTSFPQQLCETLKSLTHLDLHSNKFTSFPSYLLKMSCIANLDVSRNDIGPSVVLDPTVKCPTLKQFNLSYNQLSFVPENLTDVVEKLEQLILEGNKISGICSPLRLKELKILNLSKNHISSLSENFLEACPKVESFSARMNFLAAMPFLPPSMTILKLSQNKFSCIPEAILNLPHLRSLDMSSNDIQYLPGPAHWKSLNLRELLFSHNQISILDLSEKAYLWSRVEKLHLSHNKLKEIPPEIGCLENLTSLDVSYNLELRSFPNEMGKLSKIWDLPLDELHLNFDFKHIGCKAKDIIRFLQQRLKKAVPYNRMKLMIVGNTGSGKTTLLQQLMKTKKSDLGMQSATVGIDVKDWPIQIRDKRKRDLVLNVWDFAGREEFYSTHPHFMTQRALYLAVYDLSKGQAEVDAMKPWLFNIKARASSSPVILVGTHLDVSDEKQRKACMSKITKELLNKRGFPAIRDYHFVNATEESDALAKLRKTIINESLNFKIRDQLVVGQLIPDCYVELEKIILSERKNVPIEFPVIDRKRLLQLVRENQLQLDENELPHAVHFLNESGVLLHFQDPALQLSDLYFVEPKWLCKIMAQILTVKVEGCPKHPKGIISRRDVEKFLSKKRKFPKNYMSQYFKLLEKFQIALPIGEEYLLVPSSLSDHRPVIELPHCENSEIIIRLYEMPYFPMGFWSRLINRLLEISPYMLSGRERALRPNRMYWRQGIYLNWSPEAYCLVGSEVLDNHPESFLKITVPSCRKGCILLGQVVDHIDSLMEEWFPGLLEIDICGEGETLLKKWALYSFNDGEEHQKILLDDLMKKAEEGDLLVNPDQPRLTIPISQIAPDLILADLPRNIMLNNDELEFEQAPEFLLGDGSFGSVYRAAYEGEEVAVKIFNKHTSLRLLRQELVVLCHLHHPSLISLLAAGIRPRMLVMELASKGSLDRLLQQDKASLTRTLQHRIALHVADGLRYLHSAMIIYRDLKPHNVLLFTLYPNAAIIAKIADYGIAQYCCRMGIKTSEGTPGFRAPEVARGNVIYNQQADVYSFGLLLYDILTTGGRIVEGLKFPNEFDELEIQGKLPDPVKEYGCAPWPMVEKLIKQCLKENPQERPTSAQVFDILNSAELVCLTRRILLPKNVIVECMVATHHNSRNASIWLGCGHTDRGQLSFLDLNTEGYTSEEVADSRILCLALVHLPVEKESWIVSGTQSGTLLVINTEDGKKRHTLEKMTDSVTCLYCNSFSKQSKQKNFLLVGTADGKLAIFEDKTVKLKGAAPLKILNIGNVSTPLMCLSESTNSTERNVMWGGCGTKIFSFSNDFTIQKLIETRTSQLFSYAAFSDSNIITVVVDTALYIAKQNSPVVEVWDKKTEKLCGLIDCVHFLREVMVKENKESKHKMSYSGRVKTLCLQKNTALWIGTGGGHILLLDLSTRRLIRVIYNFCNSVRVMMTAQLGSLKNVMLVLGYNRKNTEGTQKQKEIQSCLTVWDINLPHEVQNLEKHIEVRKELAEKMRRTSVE
purified full‐length Strep flag LRRK2, sequence (Q5S007 whole entry): as above

Regarding `CCNc1nc(Nc2cc(F)c(C(=O)N3CCOCC3)cc2OC)ncc1C(F)(F)F` [GNE‐7915], in the data set on kinome, the kinome selectivity is on record as 1 out of 187. Moreover, the Ki at LRRK2 [1] is 2 nM. Also, in data set [2], the brain penetration entry was “brain penetrant”. Also, the “LRRK2 ubiquitination (ubiquitin signal)” value in data set [3] is listed as “neither the original kinase inhibitor (11) nor PROTAC (33) increase LRRK2 ubiquitination”. Also, the concentration for half-maximal inhibition (IC50) in the data set on LRRK2 [4] is 9 nM; in data set [5], 17.3 ± 6.76 nM.
Consider `CC(C)C[C@@H](C=O)NC(=O)[C@H](CC(C)C)NC(=O)[C@H](CC(C)C)NC(=O)OCc1ccccc1` [MG132] (Cbz-Leu-Leu-Leu-aldehyde), for which, in data set [3] (5 µM MG132 (proteasome inhibitor)), the ubiquitin signal entry is listed as “can enhance the ubiquitin signal”.
Regarding `CCNc1nc(Nc2cc(F)c(C(=O)NCCCCNc3cccc4c3C(=O)N(C3CCC(=O)NC3=O)C4=O)cc2OC)ncc1C(F)(F)F` (stereo not drawn) [PROTAC 33], in data set [3], the “LRRK2 ubiquitination (ubiquitin signal)” value is reported as “unable to increase the ubiquitin signal”. Also, in data set [5], the IC50 was found to be 14.7 ± 6.14 nM.
